# Laboratory results taken from patent US20260265235A1, “BICYCLOAMINE CARBOXAMIDE DERIVATIVE” (Sumitomo Pharma Co., Ltd., priority 2022, published 2026).
# Legend:
# [1] = biological target: T1, Human orexin receptor type 2 (Homo sapiens, UniProt O43614); assay: Test Example 1: agonist activity for orexin receptor type 2 (aequorin luminescence, intracellular calcium mobilization in CHO cells); format: cell-based; settings: compound 10 μM; relative percentage of luminescence for the luminescence (100%) of Orexin A (100 μM); CHO cells transiently expressing human orexin receptor type 2 and apoaequorin
# T1 construct: expressed in transfected cells; host or cells: CHO cells (transient expression, with apoaequorin)
# T1 sequence (O43614 1-444): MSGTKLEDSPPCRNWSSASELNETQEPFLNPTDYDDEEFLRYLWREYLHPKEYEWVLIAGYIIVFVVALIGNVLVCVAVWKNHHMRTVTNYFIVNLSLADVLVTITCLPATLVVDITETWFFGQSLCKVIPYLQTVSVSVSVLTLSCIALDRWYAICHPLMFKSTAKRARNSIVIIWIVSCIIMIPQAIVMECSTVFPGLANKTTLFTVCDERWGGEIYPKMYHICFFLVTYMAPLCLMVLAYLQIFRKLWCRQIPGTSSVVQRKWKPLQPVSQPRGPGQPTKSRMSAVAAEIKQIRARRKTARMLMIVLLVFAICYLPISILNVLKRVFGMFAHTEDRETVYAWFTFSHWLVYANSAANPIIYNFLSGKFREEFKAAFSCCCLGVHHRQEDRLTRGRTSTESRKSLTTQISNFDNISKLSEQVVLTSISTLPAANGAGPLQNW
# Method: Test Example 1: Measurement of Agonist Activity for Orexin Receptor Type 2
# (§1) Human orexin receptor type 2 and apoaequorin were transiently expressed in CHO cells, and the agonist activity was evaluated based on intracellular calcium mobilization with ligand stimulation. The CHO cells transiently-expressed human orexin receptor type 2 and apoaequorin were seeded on a 384-well plate by 2,000 cells/well, and then incubated for 16-22 hours. After the plate was returned to room temperature, Coelenterazine hcp (final concentration: 1 μM) was added to the plate, and the plate was allowed to stand at room temperature for 2 hours. And then, Orexin A or each test compound was added to the plate, and the luminescence of the cells was measured with FDSS7000 (Hamamatsu Photonics K.K.), wherein Orexin A and each test compound were dissolved in DMSO (final concentration: 0.1%), and diluted with a buffer (Hanks, 20 mM HEPES, 0.1% BSA). The agonist activity of each test compound for orexin receptor type 2 was calculated as relative percentage of luminescence for the luminescence (100%) of Orexin A (100 μM).
# (§2) Each agonist activity of the compounds obtained in Examples (10 μM) for orexin receptor type 2 is shown in the table below as relative percentage of luminescence for the luminescence (100%) of Orexin A (100 μM).
# [2] = biological target: T1, Human orexin receptor type 2; assay: Test Example 2: agonist activity for orexin receptor type 2 (aequorin luminescence, intracellular calcium mobilization in CHO cells); format: cell-based; settings: compound 10 μM; relative percentage of luminescence for the luminescence (100%) of Orexin A (100 μM); CHO cells transiently expressing human orexin receptor type 2 and apoaequorin
# Method: Test Example 2: Measurement of Agonist Activity for Orexin Receptor Type 2
# as §1, with “Orexin A (PEPTIDE INSTITUTE, INC., Lot. 711101) or each” for “Orexin A or each”
# as §2
Structure (SMILES),Agonist Activity (%) [1],Agonist Activity (%) [2]
"CC(C)N1CCN([C@H]2CCCC(F)(F)[C@@H]2NC(=O)N2C[C@H]3C[C@H](c4noc(C5CC5)n4)C[C@H]3C2)CC1 [Example 1, (3aR,5S,6aS)-5-(5-Cyclopropyl-1,2,4-oxadiazol-3-yl)-N-{(1R,6S)-2,2-difluoro-6-[4-(propan-2-yl)piperazin-1-yl]cyclohexyl}hexahydropenta[c]pyrrole-2(1H)-carboxamide]",375%,
"CC(C)N1CCN([C@H]2CCCC(F)(F)[C@@H]2NC(=O)N2C[C@H]3C[C@H](c4noc([C@@H]5C[C@@H]5F)n4)C[C@H]3C2)CC1 [Example 2, (3aR,5S,6aS)—N-{(1R,6S)-2,2-difluoro-6-[4-(propan-2-yl)piperazin-1-yl]cyclohexyl}-5-{5-[(1S,2S)-2-fluorocyclopropyl]-1,2,4-oxadiazol-3-yl}hexahydropenta[c]pyrrole-2(1H)-carboxamide]",275%,
"CC(C)N1CCN([C@H]2CCCC(F)(F)[C@@H]2NC(=O)N2C[C@@H]3[C@H](C2)[C@H]3c2noc(C3CC3)n2)CC1 [Example 3, (1R,5S,6R)-6-(5-cyclopropyl-1,2,4-oxadiazol-3-yl)-N-{(1R,6S)-2,2-difluoro-6-[4-(propan-2-yl)piperazin-1-yl]cyclohexyl}-3-azabicyclo[3.1.0]hexane-3-carboxamide]",217%,
"CC(C)N1CCN([C@H]2CCCC(F)(F)[C@@H]2NC(=O)N2C[C@@H]3[C@H](C2)[C@@H]3c2noc(C3CC3)n2)CC1 [Example 4, (1R,5S,6S)-6-(5-cyclopropyl-1,2,4-oxadiazol-3-yl)-N-{(1R,6S)-2,2-difluoro-6-[4-(propan-2-yl)piperazin-1-yl]cyclohexyl}-3-azabicyclo[3.1.0]hexane-3-carboxamide]",15%,
CC(C)N1CCN([C@H]2CCCC(F)(F)[C@@H]2NC(=O)N2CC[C@H]3C[C@H](c4noc(C5CC5)n4)[C@H]3C2)CC1 [Example 5],79%,
"CC(C)N1CCN([C@H]2CCCC(F)(F)[C@@H]2NC(=O)N2C[C@@H]3C[C@](C)(c4noc(C5CC5)n4)C[C@@H]3C2)CC1 [Example 6, (3aR,5R,6aS)-5-(5-cyclopropyl-1,2,4-oxadiazol-3-yl)-N-{(1R,6S)-2,2-difluoro-6-[4-(propan-2-yl)piperazin-1-yl]cyclohexyl}-5-methylhexahydropenta[c]pyrrole-2(1H)-carboxamide]",282%,
"CC(C)N1CCN([C@H]2CCCC(F)(F)[C@@H]2NC(=O)N2C[C@@H]3C[C@](C)(c4noc([C@@H]5C[C@@H]5F)n4)C[C@@H]3C2)CC1 [Example 7, (3aR,5R,6aS)—N-{(1R,6S)-2,2-difluoro-6-[4-(propan-2-yl)piperazin-1-yl]cyclohexyl}-5-{5-[(1S,2S)-2-fluorocyclopropyl]-1,2,4-oxadiazol-3-yl}-5-methylhexahydropenta[c]pyrrole-2(1H)-carboxamide]",328%,
"CC(C)N1CCN([C@H]2CCCC(F)(F)[C@@H]2NC(=O)N2C[C@H]3C[C@@H](c4noc(C5CC5)n4)C[C@H]3C2)CC1 [Example 8, (3aR,5R,6aS)-5-(5-cyclopropyl-1,2,4-oxadiazol-3-yl)-N-{(1R,6S)-2,2-difluoro-6-[4-(propan-2-yl)piperazin-1-yl]cyclohexyl}hexahydropenta[c]pyrrole-2(1H)-carboxamide]",423%,
"CC(C)N1CCN([C@H]2CCCC(F)(F)[C@@H]2NC(=O)N2C[C@H]3C[C@@H](c4ccccc4F)C[C@H]3C2)CC1 [Example 17, (3aR,5R,6aS)—N-{(1R,6S)-2,2-difluoro-6-[4-(propan-2-yl)piperazin-1-yl]cyclohexyl}-5-(2-fluorophenyl)hexahydropenta[c]pyrrole-2(1H)-carboxamide]",315%,

# Further lines, results first:
Agonist Activity (%) [1],Agonist Activity (%) [2],Structure (SMILES)
424%,,"CC(C)N1CCN([C@H]2CCCC(F)(F)[C@@H]2NC(=O)N2C[C@H]3C[C@@H](c4ccccc4)C[C@H]3C2)CC1 [Example 9, (3aR,5R,6aS)—N-{(1R,6S)-2,2-difluoro-6-[4-(propan-2-yl)piperazin-1-yl]cyclohexyl}-5-phenylhexahydropenta[c]pyrrole-2(1H)-carboxamide]"
450%,,CC(C)N1CCN([C@H]2CCCC(F)(F)[C@@H]2NC(=O)N2C[C@H]3CC(c4ccccc4)=C[C@H]3C2)CC1 [Example 10]
477%,,"CC(C)N1CCN([C@H]2CCCC(F)(F)[C@@H]2NC(=O)N2C[C@@H]3CN(c4ccccc4)C[C@@H]3C2)CC1 [Example 11, (3aR,6aS)—N-{(1R,6S)-2,2-difluoro-6-[4-(propan-2-yl)piperazin-1-yl]cyclohexyl}-5-phenylhexahydropyrrolo[3,4-c]pyrrole-2(1H)-carboxamide]"
492%,,"CC(C)N1CCN([C@H]2CCCC(F)(F)[C@@H]2NC(=O)N2C[C@H]3CC(c4ccccc4)C[C@H]3C2)CC1 (stereo partly drawn) [Example 12, (3aR,5S,6aS)—N-{(1R,6S)-2,2-difluoro-6-[4-(propan-2-yl)piperazin-1-yl]cyclohexyl}-5-phenylhexahydropenta[c]pyrrole-2(1H)-carboxamide]"
466%,,"Cc1ccc([C@@H]2C[C@@H]3CN(C(=O)N[C@@H]4[C@@H](N5CCN(C(C)C)CC5)CCCC4(F)F)C[C@@H]3C2)cc1 [Example 13, (3aR,5R,6aS)—N-{(1R,6S)-2,2-difluoro-6-[4-(propan-2-yl)piperazin-1-yl]cyclohexyl}-5-(4-methylphenyl)hexahydropenta[c]pyrrole-2(1H)-carboxamide]"
446%,,"Cc1ccccc1[C@@H]1C[C@@H]2CN(C(=O)N[C@@H]3[C@@H](N4CCN(C(C)C)CC4)CCCC3(F)F)C[C@@H]2C1 [Example 14, (3aR,5R,6aS)—N-{(1R,6S)-2,2-difluoro-6-[4-(propan-2-yl)piperazin-1-yl]cyclohexyl}-5-(2-methylphenyl)hexahydropenta[c]pyrrole-2(1H)-carboxamide]"
511%,,"CC(C)N1CCN([C@H]2CCCC(F)(F)[C@@H]2NC(=O)N2C[C@H]3C[C@@H](c4ccc(F)cc4)C[C@H]3C2)CC1 [Example 15, (3aR,5R,6aS)—N-{(1R,6S)-2,2-difluoro-6-[4-(propan-2-yl)piperazin-1-yl]cyclohexyl}-5-(4-fluorophenyl)hexahydropenta[c]pyrrole-2(1H)-carboxamide]"
491%,,"CC(C)N1CCN([C@H]2CCCC(F)(F)[C@@H]2NC(=O)N2C[C@H]3C[C@@H](c4cccc(F)c4)C[C@H]3C2)CC1 [Example 16, (3aR,5R,6aS)—N-{(1R,6S)-2,2-difluoro-6-[4-(propan-2-yl)piperazin-1-yl]cyclohexyl}-5-(3-fluorophenyl)hexahydropenta[c]pyrrole-2(1H)-carboxamide]"
,390%,"CC(C)N1CCN([C@H]2CCCC(F)(F)[C@@H]2NC(=O)N2C[C@@H]3CN(c4ccccc4F)C[C@@H]3C2)CC1 [Example 19, (3aR,6aS)—N-{(1R,6S)-2,2-difluoro-6-[4-(propan-2-yl)piperazin-1-yl]cyclohexyl}-5-(2-fluorophenyl)hexahydropyrrolo[3,4-c]pyrrole-2(1H)-carboxamide]"
,345%,"CC(C)N1CCN([C@H]2CCCC(F)(F)[C@@H]2NC(=O)N2C[C@@H]3CN(c4ccccn4)C[C@@H]3C2)CC1 [Example 20, (3aR,6aS)—N-{(1R,6S)-2,2-difluoro-6-[4-(propan-2-yl)piperazin-1-yl]cyclohexyl}-5-(pyridin-2-yl)hexahydropyrrolo[3,4-c]pyrrole-2(1H)-carboxamide]"
,399%,"CC(C)N1CCN([C@H]2CCCC(F)(F)[C@@H]2NC(=O)N2C[C@@H]3CN(c4cccc(F)c4)C[C@@H]3C2)CC1 [Example 22, (3aR,6aS)—N-{(1R,6S)-2,2-difluoro-6-[4-(propan-2-yl)piperazin-1-yl]cyclohexyl}-5-(3-fluorophenyl)hexahydropyrrolo[3,4-c]pyrrole-2(1H)-carboxamide]"
